Data: patent US12630565B2, “DNA-dependent protein kinase inhibitor” (DIZAL (JIANGSU) PHARMACEUTICAL CO., LTD., priority 2019, dated 2026)

Legend:
[1] = system: Rat hepatocyte; experiment: Metabolic stability assay (rat hepatocyte Clint); format: in vitro ADME; settings: 1 μM compound, cryopreserved hepatocytes 1 million cells per mL
Outline: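 Compound at 1 μM incubated with cryopreserved rat hepatocytes, 1 million cells/mL, sampled 0–120 min with acetonitrile quench and LC-MS/MS quantitation. CLint (μL/min/E6) derived from elimination rate constant and half-life of parent disappearance, scaled by cell concentration.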

[2] = Metabolic stability assay (human microsomal Clint); format: in vitro ADME; settings: 1 μM compound, 1 mg/mL microsomes, 1 mM NADPH, 37° C.
Outline: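 Compound (1 μM) incubated at 37 °C with pooled human liver microsomes (1 mg/mL) and 1 mM NADPH in 100 mM phosphate, pH 7.4. Samples quenched in acetonitrile at 0–30 min and analysed by LC-MS/MS for parent loss. CLint reported in μl/min/mg.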

[3] = target: Full length human DNAPK protein (Homo sapiens, UniProt P78527); experiment: DNA-PK enzymatic assay (TR-FRET); format: biochemical; settings: 10 μM ATP, 1.6 μM peptide substrate
[4] = Brain-blood-barrier penetration assay (short oral absorption model, Kp,uu); format: in vivo; settings: male Han Wistar rats, oral 10 mg/kg in 1% methylcellulose, AUC(brain)/AUC(plasma)×(fu,brain/fu.plasma)
Description: It is believed that Kp,uu, the relationship between concentrations of unbound drug in brain and in plasma, is the key to prediction of CNS action and should be the main parameter measured and optimized for in drug discovery (Di L et al., Journal of Medicinal Chemistry [2013], 56: 2-12).
In vitro plasma and brain binding assay was carried out by using equilibrium dialysis method with semi-permeable membrane. Plasma and diluted brain homogenate (1:4 with DPBS pH7.4) were spiked with 5 μM test compound (in triplicate) and dialyzed against equal volume of 150 μL 100 mM PBS buffer (pH7.4) at 37° C. for 18 hours in a slowly rotated plate. At the end of incubation, a 50 μL aliquot from the receiver side and a 5 μL from the donor chamber were taken. The 5 μL sample was further diluted with 45 μL of blank plasma or brain homogenate. Paired samples were matrix-matched with either buffer or blank plasma/brain homogenate and mixed for 2 min, and then precipitated with 150 μL cold acetonitrile with 100 ng/mL tolbutamide as internal standard. After centrifuging at 4000 rpm for 20 min, supernatant was diluted with 0.1% formic acid aqueous solution and analyzed for LC/MS/MS (API 4000, Applied Biosystems, Foster City). Unbound fraction (fu) of test compound in the brain homogenate and diluted plasma were calculated by the ratio of the buffer side response to the brain homogenate/plasma side response, and unbound fraction (fu,pl and fu,br) of test compound in non-diluted plasma and tissue were calculated from measured fu in homogenate and plasma with the following equation: fu,bl (fu,br)=(1/D)/[(1/fu−1)+1/D)]. D is dilution factor.
A Short oral absorption (SOA) model is an in-vivo screening model to identify brain penetration of a compound. Six male Han Wistar rats purchased from Beijing Vital River were orally dosed with the compound at 10 mg/kg in 1% methylcellulose At 0.5, 1, 2, 4, 7 and 16 hour post-dose, cerebral spinal fluid (CSF) was collected from cisterna magna. Plasma samples will be processed for plasma by centrifugation at approximately 4° C., 3,000 g within half an hour of collection. Plasma samples will be removed to a labeled tube and stored at −80 degree until analysis. Brain tissue was harvested and homogenized in 3× volume of 100 mM phosphate buffered saline (pH7.4). All samples were stored at ˜−70° C. prior to LC/MS/MS analysis.
Standards were prepared by spiking blank plasma, brain homogenate and artificial CSF covering 0.5 to 500 ng/mL. Homogenized brain tissue along with plasma samples were precipitated by adding 3-fold volume of cold acetonitrile containing internal standard (40 ng/mL Dexamethasone and 40 ng/mL Diclofenac), and 10 μL of CSF samples were precipitated with 100 μL of cold acetonitrile containing internal standard. After 2 min vortex and 5 min centrifugation at 14,000 rpm, supernatant was analyzed by LC/MS/MS (API 4000, Applied Biosystems, Foster City). Two sets of standard curves were run at the beginning and end of each batch from plasma sample analysis. For brain and CSF samples, one standard curve was analyzed along with test samples.
Total brain levels, expressed as brain/plasma ratio (Kp) were measured by AUCbrain/AUCplasma in rodents after oral administration. Free fraction of test compound in biological matrix was determined by in vitro plasma and brain binding assay. Kp,uu was calculated by the following equation: Kp,uu=AUC (brain)/AUC (plasma)×(fu,brain/fu.plasma).

[5] = system: MDCKII-MDR1-BCRP cell monolayers; experiment: MDCKII-MDR1-BCRP efflux assay; format: in vitro ADME; settings: 5 μM compound, 120 min, HBSS pH 7.4
Outline: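 Bidirectional (A-B, B-A) transport of 5 μM compound across MDCKII-MDR1-BCRP monolayers in HBSS, 25 mM HEPES pH 7.4, ~37° C. for 120 min, triplicate; donor and receiver concentrations measured, monolayer integrity checked with Lucifer yellow. Papp and efflux ratio calculated.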

Rat hepatocyte CLint (μl/min/10^−6 cells) [1]: 17.0 μl/min/10^−6 cells
Human liver microsomal CLint [2]: 68.5 µL/min/mg
IC50 [3]: 1.1 nM
Kp, uu (brain) [4]: 0.36
MDCK-Mdr1-BCRP efflux ratio [5]: 1.8
Compound: COC1CCC(n2nc(C)c3cnc(Nc4cn5ncnc5cc4C)nc32)C1 (single isomer, unassigned) [Example 111, 1-(3-methoxycyclopentyl)-3-methyl-N-(7-methyl-[1,2,4]triazolo[1,5-a]pyridin-6-yl)-1H-pyrazolo[3,4-d]pyrimidin-6-amine]
